Reference: paper PMC7553701 (Toxicological Sciences, 2020)
Values after ≈ are worked out from the molar mass of the structure shown. “Also recorded” adds a separate entry of the source. Like-named read-outs stand apart in the source and are kept apart here.

What was measured:
rat [1] = experiment: Histopathology, clinical chemistry and tolerability in short-term rat studies; format: in vivo; details: oral gavage, high dose 500–750 mkd
Cyp3A4 = Cyp3A4 (Homo sapiens, UniProt P08684, DEL224-224/T224I/V225I); experiment: Cyp3A4 degradation in HEK Cyp3A4 cell line; format: cell-based; details: up to 90 µM
human hepatocytes = experiment: Covalent protein binding; format: in vitro ADME; details: radiolabeled drug
rat [2] = experiment: 6-month rat toxicology study; format: in vivo; details: 6 months, highest dose tested
[3] = tested on: rat hepatocyte micropatterned coculture model (HepatoPac); experiment: In vitro BA-LRA in rat HepatoPac; format: cell-based; details: 9 days, at 50 µM
BSEP = details: siRNA BSEP KD rat; ref Li et al., 2019; cited from earlier work
[4] = tested on: NRF2/Keap1 and NRF1 coregulated gene network in rat liver; details: for maximum daily dose (boundary) predicted from BA-LRA score: clinical daily dose; for BA-LRA score / BA-LRA outcome, day 1 single dose study: rat; for BA-LRA outcome, day 1 single dose study: day 1 single dose sample collection; for rat BA-LRA result: in vivo rat liver, threshold 0.22
NHP = experiment: 9-month NHP toxicology study; format: in vivo; details: 9 months, highest dose tested
HepG2 = details: 24 h, HepG2 glucose-galactose shift; ref Xu et al., 2019; cited from earlier work
human HepatoPac [5] = experiment: In vitro BA-LRA in human HepatoPac; format: cell-based; details: at 50 µM
human HepatoPac [6] = details: ref Hafey et al., unpublished data, cited from earlier work
human HepatoPac [7] = experiment: Urea synthesis in human HepatoPac cultures; format: cell-based; details: 9 days of exposure
NRF2 = experiment: HEK cell CYP450-dependent versus -independent NRF2 stabilization assay; format: cell-based, human; details: for NRF2 activation: HEK Cyp3A4 and parental cell lines, up to 90 µM; for NRF2 protein level in noninduced cells: HEK293/CYP cells without Dox; for NRF2 protein level in cells expressing other CYP isoforms: HEK293 cells expressing the other 7 CYP isoforms; for NRF2 activation with and without CYP450 expression: HEK-CYP cell lines, [− Dox] and [+ Dox]
Mouse = experiment: 6-month mouse toxicology study; format: in vivo; details: 6 months, highest dose tested
rat HepatoPac = experiment: Urea synthesis in rat HepatoPac cultures; format: cell-based; details: 9 days
[8] = tested on: bile salt export pump (BSEP); experiment: Bile salt export pump; format: biochemical; details: modeling a dose of 280 mg; ref Hafey et al., unpublished data
patients = details: ref Hargreaves and Olesen, 2019, cited from earlier work
rat liver = experiment: BA-LRA score calculated from Open TG-GATEs Affymetrix GeneChip data; format: in vivo; details: 600 mkd, 24 h, Affymetrix platform; ref Igarashi et al., 2015
[9] = Clinical studies: liver safety and exposure; details: human, in vivo, 900 mg
Dog = experiment: 1-month dog toxicology study; format: in vivo; details: high dose with excessive body weight loss
Biliary excretion = format: cell-based; details: human HepatoPac cultures, plasma or biological fluid

In the case of `O=C(N[C@@H]1CC[C@@H](c2cccc(F)c2F)CN(CC(F)(F)F)C1=O)N1CCC(n2c(=O)[nH]c3ncccc32)CC1` [Telcagepant], the “tolerability of high repeat daily doses” value (rat [1]) is reported as “poorly tolerated”, the Cyp3A4 degradation (Cyp3A4) is reported as “no effect was seen” and the “covalent protein binding in human hepatocytes” value (shortened to “covalent protein binding”) (human hepatocytes) is reported as “high covalent binding”. For the same compound, the “Liver Findings” value (rat [2]) was “No liver safety signal at Highest Dose tested”, the “BA-LRA (in vitro)” value [3] was “well exceeding the threshold of the assay” and the “BA-LRA (in vitro)” value ([3]; listed as MK-0974/Telcagepant) was > 0.2. For the same compound, the “synergy expected for a BSEP inhibitor” value (BSEP) was “no evidence for synergy”, the “maximum daily dose (boundary) predicted from BA-LRA score” value [4] was < 600 mg and the BA-LRA score ([4]; 400 mkd × 4 days, peak score) was 0.30. For the same compound, the “Liver Findings” value (NHP) was “No liver safety signal at Highest Dose tested”, the mitochondrial toxicity (HepG2) was “unlikely mechanism of concern” and the “in vitro BA-LRA transcriptional response to CRM responsive genes” value (human HepatoPac [5]) was “well exceeding the threshold of the assay”. The “Biliary Excretion Index IC50” value (human HepatoPac [6]) was 16 µM, the urea synthesis (human HepatoPac [7]) was “no inhibition of urea synthesis” and the NRF2 activation (NRF2) was “no effect was seen”. For the same compound, the “Liver Findings” value (Mouse) was “No liver safety signal at Highest Dose tested”, the “urea (mito fx) / urea synthesis” value (rat HepatoPac) was “no inhibition of urea synthesis” and the “urea (mito fx) / urea synthesis” value (rat HepatoPac; listed as MK-0974/Telcagepant) was “no effect on urea to 100 µM”. For the same compound, the “exposure multiple of BSEP IC50 above calculated free unbound liver inlet Cmax” value [8] was 17.5 fold.
In the case of `Cc1cc2c(s1)Nc1ccccc1N=C2N1CCN(C)CC1` [Olanzapine], the “tolerability of high repeat daily doses” value (rat [1]) is reported as “not tolerated” and the “BA-LRA outcome, day 1 single dose study” value [4] is reported as “InsfT”.
With `C/N=C(\S)NCCSCc1[nH]cnc1C` [Metiamide] the “rat BA-LRA result” value [4] was “did not show a significant rat liver BA-LRA signal”.
With `CN1CCN(C2=Nc3cc(Cl)ccc3Nc3ccccc32)CC1` [Clozapine] the “rat BA-LRA result” value [4] was “significant BA-LRA signal” and the “BA-LRA outcome, day 1 single dose study” value [4] was “BA-LRA positive”.
For `C[C@@H]1[C@H](c2ccccc2)C[C@H](NC(=O)c2cnc3c(c2)C[C@@]2(C3)C(=O)Nc3ncccc32)C(=O)N1CC(F)(F)F` [Ubrogepant], the “clinical liver safety profile” value (patients; clinical trials) is listed as “superior clinical liver safety profile”.
For `Clc1ccccc1CN1CCc2sccc2C1` [Ticlopidine], the “NRF2 protein level in noninduced cells” value (NRF2; 6 h) was “not in noninduced cells”, the “NRF2 protein level in cells expressing other CYP isoforms” value (NRF2) was “no effects on the NRF2 protein level” and the “concentration at which NRF2 activation begins” value (NRF2; induced [+Dox] CYP2C9 expressing HEK293 cells, 6 h) was “approximately 25 µM”.
With `CC(=O)Nc1ccc(O)cc1` [Acetaminophen] the BA-LRA score ([4]; at 24 h (Figs. 2 and 3)) was 0.54, the “BA-LRA score calculated from TG-GATEs data” value (rat liver) was 0.32 and the “NRF2 protein level in noninduced cells” value (NRF2; 6 h) was “not apparent”. For the same compound, the “NRF2 protein level in cells expressing other CYP isoforms” value (NRF2) was “not apparent”.
For `O=C(CN1C(=O)C2(CCCC2)NC[C@H]1c1cc(F)cc(F)c1)Nc1ccc2c(c1)C[C@@]1(C2)C(=O)Nc2ncccc21` [MK-3207], the Cyp3A4 degradation (Cyp3A4) was “clear dose-dependent effect on Cyp3A4 degradation”, the AUC [9] was 60 µM·h and the “Liver Findings” value (rat [2]) was “No liver safety signal at Highest Dose tested”. For the same compound, the “Liver Findings” value (Dog) was “Slight periportal vacuolation”, the “maximum daily dose (boundary) predicted from BA-LRA score” value [4] was 300 mg and the BA-LRA score ([4]; 600 mkd × 4-day, median signature score) was 0.34. For the same compound, the “Liver Findings” value (NHP) was “No liver safety signal at Highest Dose tested”, the mitochondrial toxicity (HepG2) was “No evidence for mitochondrial toxicity” and the “biliary excretion of taurocholic acid” value (human HepatoPac [6]; 50 µM) was “no significant impact”. For the same compound, the urea synthesis (human HepatoPac [7]) was “lack of urea synthesis inhibition”, the NRF2 activation (NRF2) was “no CYP-dependent effect on NRF2 activation” and the solubility (Biliary excretion) was 50 µM (≈ 27.9 µg/mL). For the same compound, the “incidence of subjects with ALT rises > 3-fold ULN” value (patients; Phase 2, 2 weeks, daily doses ≤ 100 mg (2/197)) was 1%, the “patients with > 20-fold ALT rises” value (patients; among the 5 patients dosed above 500 mg daily) was 3 and the “Liver Findings” value (Mouse) was “No liver safety signal at Highest Dose tested”. The “urea (mito fx) / urea synthesis” value (rat HepatoPac) was “lack of urea synthesis inhibition; also recorded: no effect on urea to 80 µM”.
For `Nc1c2c(nc3ccccc13)CCCC2` [Tacrine], the “tolerability of high repeat daily doses” value (rat [1]) was “not tolerated”.
With `CN/C(=N/CCSCc1nc[nH]c1C)NC#N` [Cimetidine] the “covalent protein binding” value (human hepatocytes) was “high CPB”.
With `Cc1cnc(NC(=O)C2=C(O)c3ccccc3S(=O)(=O)N2C)s1` [Meloxicam] the “tolerability of high repeat daily doses” value (rat [1]) was “not tolerated”.
With `COc1ccc2[nH]c([S+]([O-])Cc3ncc(C)c(OC)c3C)nc2c1` (stereo not drawn) [Omeprazole] the “NRF2 activation with and without CYP450 expression” value (NRF2) was “gave similar results”.
With `Cc1c(-c2cnccn2)ssc1=S` [Oltipraz, oltipraz] the “NRF2 activation with and without CYP450 expression” value (NRF2) was “gave similar results”.
With `C[S+]([O-])CCCCN=C=S` (stereo not drawn) [Sulforaphane, sulforaphane] the “NRF2 activation with and without CYP450 expression” value (NRF2) was “gave similar results”.
With `Clc1ccccc1C(c1ccccc1)(c1ccccc1)n1ccnc1` [Clotrimazole] the “tolerability of high repeat daily doses” value (rat [1]) was “not tolerated”.
For `CC1(C)CC[C@]2(C(=O)O)CC[C@]3(C)[C@H](C(=O)C=C4[C@@]5(C)C=C(C#N)C(=O)C(C)(C)[C@@H]5CC[C@]43C)[C@@H]2C1` [Bardoxolone], the “NRF2 activation with and without CYP450 expression” value (NRF2) was “induced NRF2 activation in a similar fashion under both [− Dox] and [+ Dox] conditions”.
With `CNS(=O)(=O)Cc1ccc2[nH]cc(CCN(C)C)c2c1` [Sumatriptan] the “covalent protein binding” value (human hepatocytes) was “high CPB”.
